This is an account of results in ChEMBL document CHEMBL1153942, “Design and efficient synthesis of novel ascorbyl conjugated peptide with high collagen biosynthesis stimulating effects” (Bioorg Med Chem Lett, 2009).

Active and inactive are the calls of the source. No cut-off for these calls is given here. Residues, ends and D or L forms follow the SMILES beside them. *: point of attachment. X1 = O=C(CCC(=O)*)OCC(O)C1OC(=O)C(O)=C1O; Palmitoyl = CCCCCCCCCCCCCCCC(=O)* Bounds are passed on as bounds.

Data set [1] relates to HDF. Briefly: Stimulation of collagen biosynthesis in primary cultured neonatal HDF at 1 to 1000 uM after 72 hrs by ELISA in presence of fetal bovine serum. The note with it: Homo sapiens. It is filed as functional, cell-based.
A short description of data set [2]: Cytotoxicity against HDF at >100 uM. It is filed as cell-based. The note with it: human.
The subject of data set [3] is HDF. Briefly: Stimulation of collagen biosynthesis in primary cultured neonatal HDF at 100 uM after 72 hrs by ELISA in presence of fetal bovine serum. It is filed as functional, cell-based. The note with it: Homo sapiens.
A short description of data set [4]: Stability in rat skin homogenates. It is filed as ADME, tissue-based, Zone of skin. The settings on record: read-out: Stability.
Data set [5] in a line: Stability in rat skin homogenates assessed as compound remain after 6 hrs. It is filed as ADME, tissue-based, Zone of skin. The settings on record: read-out: Stability.

For the compound `O=C1O[C@H]([C@@H](O)CO)C(O)=C1O`, the result in the data set with HDF [1] was inactive.

For `CCCCCCCCCCCCCCCC(=O)N[C@@H](CCCCN)C(=O)N[C@H](C(=O)N[C@H](C(=O)N[C@@H](CCCCN)C(=O)N[C@@H](CO)C(=O)O)[C@@H](C)O)[C@@H](C)O` (Palmitoyl-KTTKS-OH), the outcome in data set [2] was Active. Moreover, in the data set on HDF [3], the outcome was Active.

In the case of `C[C@@H](O)[C@H](NC(=O)[C@H](CCCCN)NC(=O)CCC(=O)OCC(O)C1OC(=O)C(O)=C1O)C(=O)N[C@H](C(=O)N[C@@H](CCCCN)C(=O)N[C@@H](CO)C(=O)O)[C@@H](C)O` (some centres not stated) (X1-KTTKS-OH), in the data set on HDF [1], the outcome was Active. Also, in data set [4], the half-life is more than 6 h. The remaining at 6 h in data set [5] is less than 10%.

H-KTTKS-OH: the result in the data set with HDF [1] was inactive.
